What was measured:
[1] = tested on: S. epidermidis (ATCC 12228); test: Microbe count determination, bacteriostatic or bactericidal action (Example 5); assay type: cell-based, Staphylococcus epidermidis; details: 24 h at 35° C.
Method: (§1) For sample preparation, the substances being investigated are each dissolved or homogeneously dispersed in an amount of 1.0% in a water/ethanol mixture (12% of ethanol) (=sample). A bacteria suspension of S. epidermidis (ATCC 12228) having an optical density of 1.0 in CASO broth (Merck 1.05459) is diluted 1:10000 with CASO broth. 500 μl of sample are added to 500 μl of bacteria suspension, and the mixture is incubated at 35° C. for 24 h. After the incubation, the test batches are diluted to −6 in 10 unit steps, and 0.1 ml of each is plated-out on CASO agar (Merck 1.05458) and incubated at 35° C. for 24 h.
(§2) In order to determine the initial microbe count, 0.1 ml of the bacteria suspension used are plated-out on CASO agar (Merck 1.05458) and incubated at 35° C. for 24 h.
(§3) The colonies are subsequently counted, and the microbe count per ml is determined compared with the negative control (12% of ethanol in water).

[2] = tested on: Candida albicans; test: Antimicrobial action, microbe count (Example 6); assay type: cell-based; details: conc. 0.5%; for Δlog: t24 h
Method: as §1, §2, §3
The procedure corresponds to that described in Examples 4 and 5 using the microorganisms shown below. The concentrations indicated are the final use concentrations. In order to prepare the stock solution, double the final concentration were prepared in the solvent indicated. This was subsequently diluted 1:2 with the corresponding microbe suspension. In the case of Aspergillus brasiliensis, the microbe count determination was exceptionally carried out after 48 h.

[3] = H2O (12% of ethanol), count t0 3.4 × 10^4

CCOC(=O)C1CCCCC1O (stereo not drawn) [Substance I-2]
Final microbe count ([1]; 1.0% sample in 12% ethanol, 500 μl + 500 μl bacteria suspension, initial count 3.8 × 10^4, negative control 5.0 × 10^7): 2.9 × 10^4 CFU/ml | Note: bacteriostatic or bactericidal action ([1]; S. epidermidis): bacteriostatic | Microbe count t24 h [2, 3]: 3.0 × 10^2 | Δlog [2, 3]: −2.05 | Microbe count t24 h ([2]; H2O, count t0 3.8 × 10^5): 2.5 × 10^5 | Δlog ([2]; H2O, count t0 3.8 × 10^5): −0.18
